Measurements published in publication PMC7248570 (Frontiers in Microbiology, 2020).

Legend:
CgmycLAO = assay type: biochemical, Infundibulicybe geotropa
CgLAO = assay type: biochemical, Infundibulicybe geotropa

CC(C)C[C@H](N)C(=O)O [L-Leu]
Km (CgmycLAO): 1520 ± 60 µM | Km (CgLAO): 550 ± 60 µM
